Assay results reported in the CheMixHub viscosity set.
Several values for one entry are separate records, joined by “and”; a condition that tells them apart may be missing. Equal values may be shown once. ± gives the uncertainty stated by the source.

Assay: xn = mol fraction of the nth substance listed

COCCOCCO + ClC=C(Cl)Cl
298.15 K, 101.33 kPa
Settings | viscosity [mPa·s]
x1 = 0.0091 | 0.537 ± 0.006
x1 = 0.0258 | 0.553 ± 0.006
x1 = 0.0362 | 0.567 ± 0.006
x1 = 0.0477 | 0.582 ± 0.006
x1 = 0.0679 | 0.61 ± 0.006
x1 = 0.0896 | 0.643 ± 0.007
x1 = 0.1146 | 0.685 ± 0.007
x1 = 0.1489 | 0.742 ± 0.007
x1 = 0.187 | 0.817 ± 0.008
x1 = 0.2425 | 0.926 ± 0.009
x1 = 0.2811 | 1.009 ± 0.01
x1 = 0.3123 | 1.082 ± 0.011
x1 = 0.3733 | 1.237 ± 0.012
x1 = 0.4192 | 1.356 ± 0.013
x1 = 0.4582 | 1.467 ± 0.014
x1 = 0.4988 | 1.587 ± 0.016
x1 = 0.541 | 1.725 ± 0.017
x1 = 0.5789 | 1.849 ± 0.018
x1 = 0.608 | 1.948 ± 0.019
x1 = 0.6351 | 2.044 ± 0.02
x1 = 0.6756 | 2.194 ± 0.022
x1 = 0.7372 | 2.433 ± 0.024
x1 = 0.7781 | 2.596 ± 0.026
x1 = 0.811 | 2.73 ± 0.027
x1 = 0.8467 | 2.882 ± 0.029
x1 = 0.8774 | 3.015 ± 0.031
x1 = 0.9167 | 3.194 ± 0.033
x1 = 0.9481 | 3.329 ± 0.034
x1 = 0.9733 | 3.449 ± 0.035
x2 = 0.0104 | 3.531 ± 0.036

CCOC(=O)OCC + CCCCCCCC
298.15 K, 101.3 kPa
Settings | viscosity [mPa·s]
x1 = 0.0224 | 0.517 ± 0.007
x1 = 0.0828 | 0.509 ± 0.006
x1 = 0.1137 | 0.508 ± 0.006
x1 = 0.1181 | 0.508 ± 0.006
x1 = 0.1535 | 0.508 ± 0.006
x1 = 0.1753 | 0.507 ± 0.006
x1 = 0.3802 | 0.529 ± 0.007
x1 = 0.4893 | 0.549 ± 0.007
x1 = 0.5834 | 0.572 ± 0.007
x1 = 0.6904 | 0.6 ± 0.008
x1 = 0.8119 | 0.645 ± 0.008
x1 = 0.8465 | 0.659 ± 0.008
x1 = 0.8953 | 0.681 ± 0.009
x1 = 0.9679 | 0.727 ± 0.009

Cc1ccc(N)cc1 + Oc1ccccc1
101 kPa
Settings | viscosity [mPa·s]
303.1 K, x2 = 0.43 | 7.57 ± 0.16
303.1 K, x2 = 0.507 | 8.64 ± 0.18
303.1 K, x2 = 0.619 | 9.42 ± 0.19
303.1 K, x2 = 0.652 | 9.62 ± 0.19
303.1 K, x2 = 0.741 | 8.94 ± 0.18
313.05 K, x2 = 0.111 | 2.632 ± 0.025
313.05 K, x2 = 0.2288 | 3.352 ± 0.033
313.05 K, x2 = 0.3265 | 4.09 ± 0.04
313.05 K, x2 = 0.4169 | 4.82 ± 0.05
313.05 K, x2 = 0.4949 | 5.43 ± 0.05
313.05 K, x2 = 0.5828 | 6.015 ± 0.058
313.05 K, x2 = 0.6568 | 6.29 ± 0.06
313.05 K, x2 = 0.737 | 6.27 ± 0.06
313.05 K, x2 = 0.8217 | 5.915 ± 0.057
313.05 K, x2 = 0.9089 | 5.38 ± 0.05

c1ccc(Oc2ccccc2)cc1 + c1ccc(-c2ccccc2)cc1
Settings | viscosity [mPa·s]
293.15 K, 101 kPa, x1 = 0.705 | 4.35 ± 0.18
298.15 K, 101 kPa, x1 = 0.705 | 3.78 ± 0.16
298.15 K, 101 kPa, x1 = 0.85 | 3.71 ± 0.15
298.95 K, 101.33 kPa, x1 = 0.715 | 3.66 ± 0.12
303.15 K, 101 kPa, x1 = 0.85 | 3.32 ± 0.14
308.15 K, 101 kPa, x1 = 0.705 | 2.94 ± 0.12
308.15 K, 101 kPa, x1 = 0.85 | 2.93 ± 0.12
309.85 K, 101.33 kPa, x1 = 0.715 | 2.84 ± 0.09
313.15 K, 101 kPa, x1 = 0.55 | 2.63 ± 0.11
313.15 K, 101 kPa, x1 = 0.705 | 2.61 ± 0.11
313.15 K, 101 kPa, x1 = 0.85 | 2.61 ± 0.11
314.15 K, 101.33 kPa, x1 = 0.715 | 2.57 ± 0.08
318.65 K, 101.33 kPa, x1 = 0.715 | 2.4 ± 0.08
321.95 K, 101.33 kPa, x1 = 0.715 | 2.29 ± 0.07

CCCCCCCCCCO + Cc1ccc(C)cc1
viscosity [mPa·s], 101 kPa
Settings | 298.15 K | 308.15 K
x2 = 0.0806 | 9.447 ± 0.065 | 6.565 ± 0.047
x2 = 0.1731 | 7.145 ± 0.051 | 5.045 ± 0.038
x2 = 0.2506 | 5.591 ± 0.041 | 4.011 ± 0.03
x2 = 0.3197 | 4.463 ± 0.033 | 3.242 ± 0.024
x2 = 0.3693 | 3.779 ± 0.028 | 2.781 ± 0.021
x2 = 0.4336 | 3.053 ± 0.023 | 2.275 ± 0.018
x2 = 0.4929 | 2.512 ± 0.019 | 1.9 ± 0.015
x2 = 0.5771 | 1.908 ± 0.015 | 1.481 ± 0.012
x2 = 0.662 | 1.456 ± 0.012 | 1.153 ± 0.011
x2 = 0.7265 | 1.2 ± 0.011 | 0.963 ± 0.009
x2 = 0.7763 | 1.04 ± 0.01 | 0.845 ± 0.009
x2 = 0.8293 | 0.9 ± 0.009 | 0.744 ± 0.008
x2 = 0.8891 | 0.776 ± 0.008 | 0.648 ± 0.008
x2 = 0.9369 | 0.693 ± 0.008 | 0.59 ± 0.008

Cc1ccccc1C + CCCCCCO
viscosity, 101 kPa
Settings | 303.15 K | 313.15 K | 318.15 K | 323.15 K
x2 = 0.0999 | 0.758 ± 0.008 mPa·s | 0.663 ± 0.007 mPa·s | – | 0.584 ± 0.006 mPa·s
x2 = 0.1 | 0.7581 ± 0.0099 mPa·s | 0.6626 ± 0.0087 mPa·s | – | 0.5835 ± 0.0077 mPa·s
x2 = 0.1999 | 0.852 ± 0.009 mPa·s | 0.731 ± 0.007 mPa·s | – | 0.637 ± 0.007 mPa·s
x2 = 0.2 | 0.852 ± 0.011 mPa·s | 0.7312 ± 0.0095 mPa·s | 0.6825 ± 0.0089 mPa·s | 0.6374 ± 0.0084 mPa·s
x2 = 0.2999 | 0.978 ± 0.01 mPa·s | 0.829 ± 0.008 mPa·s | – | 0.713 ± 0.007 mPa·s
x2 = 0.3 | 0.9776 ± 0.013 mPa·s | 0.8292 ± 0.011 mPa·s | – | 0.7127 ± 0.0093 mPa·s
x2 = 0.4 | 1.142 ± 0.015 mPa·s | 0.9571 ± 0.012 mPa·s | – | 0.8098 ± 0.01 mPa·s
x2 = 0.4001 | 1.142 ± 0.012 mPa·s | 0.957 ± 0.01 mPa·s | – | 0.81 ± 0.008 mPa·s
x2 = 0.4997 | 1.361 ± 0.014 mPa·s | 1.118 ± 0.011 mPa·s | – | 0.933 ± 0.009 mPa·s
x2 = 0.5 | 1.361 ± 0.017 mPa·s | 1.118 ± 0.014 mPa·s | – | 0.933 ± 0.012 mPa·s
x2 = 0.6 | 1.651 ± 0.017 mPa·s and 1.651 ± 0.021 mPa·s | 1.325 ± 0.013 mPa·s and 1.325 ± 0.017 mPa·s | – | 1.087 ± 0.011 mPa·s and 1.087 ± 0.014 mPa·s
x2 = 0.7 | 2.034 ± 0.021 mPa·s and 2.034 ± 0.025 mPa·s | 1.596 ± 0.016 mPa·s and 1.596 ± 0.02 mPa·s | – | 1.284 ± 0.013 mPa·s and 1.284 ± 0.016 mPa·s
x2 = 0.8 | 2.532 ± 0.026 mPa·s and 2.532 ± 0.032 mPa·s | 1.951 ± 0.02 mPa·s and 1.951 ± 0.024 mPa·s | – | 1.541 ± 0.016 mPa·s and 1.541 ± 0.019 mPa·s
x2 = 0.8999 | 3.141 ± 0.032 mPa·s | 2.391 ± 0.025 mPa·s | – | 1.859 ± 0.019 mPa·s
x2 = 0.9 | 3.141 ± 0.039 mPa·s | 2.391 ± 0.03 mPa·s | – | 1.859 ± 0.023 mPa·s

CCCCCCCCCCCC + CCCCCCCC
Settings | viscosity
298.15 K, 101.33 kPa, x2 = 0.1117 | 1.233 ± 0.03 mPa·s
298.15 K, 101.33 kPa, x2 = 0.2101 | 1.138 ± 0.028 mPa·s
298.15 K, 101.33 kPa, x2 = 0.3025 | 1.038 ± 0.026 mPa·s
298.15 K, 101.33 kPa, x2 = 0.4085 | 0.9477 ± 0.024 mPa·s
298.15 K, 101.33 kPa, x2 = 0.5069 | 0.8672 ± 0.022 mPa·s
298.15 K, 101.33 kPa, x2 = 0.6088 | 0.7703 ± 0.02 mPa·s
298.15 K, 101.33 kPa, x2 = 0.7035 | 0.71 ± 0.019 mPa·s
298.15 K, 101.33 kPa, x2 = 0.804 | 0.6353 ± 0.017 mPa·s
298.15 K, 101.33 kPa, x2 = 0.9048 | 0.5647 ± 0.015 mPa·s
298.2 K, 100 kPa, x2 = 0.5 | 0.869 ± 0.036 mPa·s
323.15 K, 100 kPa, x2 = 0.434 | 0.658 ± 0.027 mPa·s and 0.657 ± 0.027 mPa·s
323.15 K, 100 kPa, x2 = 0.743 | 0.502 ± 0.021 mPa·s and 0.501 ± 0.021 mPa·s

CCOC(=O)OCC + CCCCO
101 kPa
Settings | viscosity [mPa·s]
293.15 K, x1 = 0.05477 | 2.407
293.15 K, x1 = 0.1013 | 2.092
293.15 K, x1 = 0.1989 | 1.633
293.15 K, x1 = 0.3128 | 1.321
293.15 K, x1 = 0.4106 | 1.145
293.15 K, x1 = 0.5009 | 1.023
293.15 K, x1 = 0.6135 | 0.901
293.15 K, x1 = 0.7033 | 0.838
293.15 K, x1 = 0.7967 | 0.806
293.15 K, x1 = 0.8803 | 0.807
293.15 K, x1 = 0.9292 | 0.802
303.15 K, x1 = 0.1264 | 1.549
303.15 K, x1 = 0.2963 | 1.093
303.15 K, x1 = 0.4038 | 0.957
303.15 K, x1 = 0.5148 | 0.867
303.15 K, x1 = 0.6085 | 0.808
303.15 K, x1 = 0.7037 | 0.759
303.15 K, x1 = 0.8066 | 0.717
303.15 K, x1 = 0.9043 | 0.701
313.15 K, x1 = 0.04531 | 1.564
313.15 K, x1 = 0.2917 | 0.947
313.15 K, x1 = 0.4025 | 0.819
313.15 K, x1 = 0.5009 | 0.743
313.15 K, x1 = 0.6129 | 0.679
313.15 K, x1 = 0.7014 | 0.645
313.15 K, x1 = 0.81 | 0.628
313.15 K, x1 = 0.9091 | 0.619

Cc1ccccc1C + Cc1ccc(C)cc1
101.3 kPa
Settings | viscosity [mPa·s]
298.15 K, x1 = 0.0748 | 0.6114 ± 0.0052
298.15 K, x1 = 0.1866 | 0.6242 ± 0.0053
298.15 K, x1 = 0.3032 | 0.641 ± 0.0054
298.15 K, x1 = 0.4147 | 0.6549 ± 0.0055
298.15 K, x1 = 0.5702 | 0.6779 ± 0.0057
298.15 K, x1 = 0.6823 | 0.6995 ± 0.0058
298.15 K, x1 = 0.8109 | 0.7176 ± 0.0059
298.15 K, x1 = 0.9402 | 0.7417 ± 0.0061
303.15 K, x1 = 0.0902 | 0.5764 ± 0.005
303.15 K, x1 = 0.2065 | 0.5904 ± 0.0051
303.15 K, x1 = 0.3178 | 0.604 ± 0.0052
303.15 K, x1 = 0.4339 | 0.6204 ± 0.0053
303.15 K, x1 = 0.4577 | 0.6237 ± 0.0053
303.15 K, x1 = 0.5832 | 0.642 ± 0.0054
303.15 K, x1 = 0.6243 | 0.6474 ± 0.0055
303.15 K, x1 = 0.7864 | 0.6729 ± 0.0056
303.15 K, x1 = 0.8933 | 0.6889 ± 0.0057
